Where two headings read alike, the source gives them in different places.
Experiments:
R. chinensis pepsin = molecular target: T1, R. chinensis pepsin (Rhizopus chinensis, UniProt P06026); assay: biochemical
T1 sequence (P06026 69-393): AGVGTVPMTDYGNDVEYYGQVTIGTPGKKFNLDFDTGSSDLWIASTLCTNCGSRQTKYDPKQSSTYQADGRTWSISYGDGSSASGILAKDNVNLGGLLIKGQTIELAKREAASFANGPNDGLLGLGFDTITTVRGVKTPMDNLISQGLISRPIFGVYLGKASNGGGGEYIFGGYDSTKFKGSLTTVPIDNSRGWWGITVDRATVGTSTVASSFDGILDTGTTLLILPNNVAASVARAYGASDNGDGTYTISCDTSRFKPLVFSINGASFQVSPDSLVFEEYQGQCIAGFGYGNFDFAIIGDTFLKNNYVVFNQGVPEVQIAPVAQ
Protocol: Inhibition of substrate hydrolysis by porcine pepsin and R. chinensis pepsin was determined using prior art assay conditions. See Flentke et al. (1999) Protein Expression Purif. 16:213 and Peranteau et al. (1995) Anal. Biochem. 227:242.

porcine pepsin = porcine pepsin (Sus scrofa, UniProt P00791); assay: Inhibition of substrate hydrolysis by porcine pepsin; type: biochemical
human renin = human renin (Homo sapiens, UniProt P00797); conditions: cited from earlier work
Chain of human renin (P00797 67-406): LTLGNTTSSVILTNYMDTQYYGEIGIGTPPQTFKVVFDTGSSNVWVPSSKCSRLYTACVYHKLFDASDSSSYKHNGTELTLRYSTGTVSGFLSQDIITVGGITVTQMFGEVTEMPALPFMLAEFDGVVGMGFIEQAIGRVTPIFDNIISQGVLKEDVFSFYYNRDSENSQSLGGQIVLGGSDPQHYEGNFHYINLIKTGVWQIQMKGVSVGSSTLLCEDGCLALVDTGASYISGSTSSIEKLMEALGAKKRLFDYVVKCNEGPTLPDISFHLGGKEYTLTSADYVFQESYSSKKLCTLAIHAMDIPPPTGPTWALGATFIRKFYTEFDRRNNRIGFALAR

Chain of porcine pepsin (P00791 60-385): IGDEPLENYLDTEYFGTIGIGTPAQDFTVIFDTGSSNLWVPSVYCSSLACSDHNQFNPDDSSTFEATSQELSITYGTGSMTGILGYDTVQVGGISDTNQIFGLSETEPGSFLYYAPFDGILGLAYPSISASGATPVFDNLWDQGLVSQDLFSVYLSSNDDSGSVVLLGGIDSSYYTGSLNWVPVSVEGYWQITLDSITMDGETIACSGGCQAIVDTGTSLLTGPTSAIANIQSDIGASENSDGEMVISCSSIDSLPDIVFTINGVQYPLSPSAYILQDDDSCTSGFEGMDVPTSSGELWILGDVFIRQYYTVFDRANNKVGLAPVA

## O=C(COc1ccc([C@H]2CCNC[C@@H]2OCc2ccc(Br)cc2)cc1)c1ccc2ccccc2c1 [Compound 11]
R. chinensis pepsin
  IC50: 200 nM
Porcine pepsin; porcine pepsin, read-out: IC50
  IC50: 200 nM

## COc1ccc(CO[C@H]2CNCCC2c2ccc(Cl)cc2)cc1 (stereo partly drawn) [Compound 4]
Human renin; human renin, literature
  concentrations at which renin is inhibited (in words): low micromolar
Human renin; read-out: inhibits renin at, renin, literature value
  IC50: ~26000 nM

## Brc1ccc(CO[C@H]2CNCC[C@@H]2c2ccccc2)cc1 [Compound 12]
R. chinensis pepsin; R. chinensis pepsin, read-out: IC50
  IC50: 2000 nM
Porcine pepsin
  IC50: 2000 nM

— patent US6947847B2, “Method to design therapeutically important compounds” (Wisconsin Alumni Research Foundation, priority 2002, dated 2005)
